{
  "source": "the supplement of paper PMC11208160",
  "data": [
    {"assay": "recombinant UMI read abundance after kanamycin selection (control-corrected) (log10(CPM+1)); higher = more efficient recombination; extreme values may be limits of the assay; sequences stand for … in AGTGCAGAGAAAATCGGCCAGTTTTCTCTGCCTGCAGTCCGCATGCCGTGGGACCCCTTGGGTTCTAACCTGTTGCCTAGATTTATGCAGCGGACTGCCTTTCTCCCAAAGTGATAAACCGG…AGGTTGGTTTCACT; site = the 11-nt donor", "procedure,_shortened": "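Values are reported as log10(CPM+1), obtained by converting sequencing counts to CPM, averaging replicates and scaling by control-derived factors. The counts came from recombinant UMIs amplified by PCR across the donor–target junction. These UMIs came from a pooled Escherichia coli screen of donor and donor-binding-loop pairs for the IS621 bridge recombinase, plated with IPTG (0.07 mM) plus kanamycin or left unselected, in two replicates each.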", "values": [
      {"sequence": "AGTGAGACATGGACCGGTTTTCCCGGTAATCCGTATTTGGT (site ACTGAGACTAC)", "recombinant UMI read abundance (log10)": 0.312},
      {"sequence": "AGTGAGACATGGACCGGTTTTCCCGGTAATCCGTATTTGGT (site AGTGAGACTAC)", "recombinant UMI read abundance (log10)": 1.21},
      {"sequence": "AGTGAGACATGGACCGGTTTTCCCGGTAATCCGTATTTGGT (site ATTGAGACTAC)", "recombinant UMI read abundance (log10)": 0.546},
      {"sequence": "AGTGCAACATGGACCGGTTTTCCCGGTAATCCGTATTTGGC (site AGTGCAACTGC)", "recombinant UMI read abundance (log10)": 0},
      {"sequence": "AGTGGCTCATGGACCGGTTTTCCCGGTAATCCGTATTTGAG (site AGTGGCTCTCT)", "recombinant UMI read abundance (log10)": 1.27},
      {"sequence": "AGTGGGACATGGACCGGTTTTCCCGGTAATCCGTATTTGGC (site AGTGGGACTGC)", "recombinant UMI read abundance (log10)": 2.85},
      {"sequence": "AGTGTAGCATGGACCGGTTTTCCCGGTAATCCGTATTTGGG (site AGTGTAGCTCC)", "recombinant UMI read abundance (log10)": 0.00834},
      {"sequence": "AGTGTGACATGGACCGGTTTTCCCGGTAATCCGTATTTGTA (site AGTGTGACTTA)", "recombinant UMI read abundance (log10)": 1.91},
      {"sequence": "AGTGTGTCATGGACCGGTTTTCCCGGTAATCCGTATTTGAC (site AATGTGTCTGT)", "recombinant UMI read abundance (log10)": 0},
      {"sequence": "AGTGTGTCATGGACCGGTTTTCCCGGTAATCCGTATTTGAC (site ACTGTGTCTGT)", "recombinant UMI read abundance (log10)": 0.812},
      {"sequence": "AGTGTGTCATGGACCGGTTTTCCCGGTAATCCGTATTTGAC (site AGTGTGTCTGT)", "recombinant UMI read abundance (log10)": 1.98},
      {"sequence": "AGTGTGTCATGGACCGGTTTTCCCGGTAATCCGTATTTGAC (site ATTGTGTCTGT)", "recombinant UMI read abundance (log10)": 0},
      {"sequence": "AGTGTTACATGGACCGGTTTTCCCGGTAATCCGTATTTGCT (site AGTGTTACTAG)", "recombinant UMI read abundance (log10)": 2.01},
      {"sequence": "AGTTAGACATGGACCGGTTTTCCCGGTAATCCGTATTTGCA (site AGGAAGACTTG)", "recombinant UMI read abundance (log10)": 1.51},
      {"sequence": "AGTTAGACATGGACCGGTTTTCCCGGTAATCCGTATTTGCA (site AGTTAGACTTG)", "recombinant UMI read abundance (log10)": 1.93},
      {"sequence": "AGTTCAGCATGGACCGGTTTTCCCGGTAATCCGTATTTGGC (site AGTTCAGCTGC)", "recombinant UMI read abundance (log10)": 0.972},
      {"sequence": "AGTTCCACATGGACCGGTTTTCCCGGTAATCCGTATTTGGC (site AGTTCCACTGC)", "recombinant UMI read abundance (log10)": 1.42},
      {"sequence": "AGTTCCACATGGACCGGTTTTCCCGGTAATCCGTATTTGTA (site AGTTCCACTTA)", "recombinant UMI read abundance (log10)": 0.751},
      {"sequence": "AGTTGGTCATGGACCGGTTTTCCCGGTAATCCGTATTTGAA (site AGTTGGTCTTT)", "recombinant UMI read abundance (log10)": 0.435},
      {"sequence": "AGTTTCGCATGGACCGGTTTTCCCGGTAATCCGTATTTGGT (site AGTTTCGCTAC)", "recombinant UMI read abundance (log10)": 0.564},
      {"sequence": "ATAAGGCCATGGACCGGTTTTCCCGGTAATCCGTATTTGAT (site ATAAGGCCTAT)", "recombinant UMI read abundance (log10)": 0.221},
      {"sequence": "ATAAGGCCATGGACCGGTTTTCCCGGTAATCCGTATTTGAT (site ATAAGGCCTCT)", "recombinant UMI read abundance (log10)": 0.00711},
      {"sequence": "ATAAGGCCATGGACCGGTTTTCCCGGTAATCCGTATTTGAT (site ATAAGGCCTGT)", "recombinant UMI read abundance (log10)": 0},
      {"sequence": "ATAAGGCCATGGACCGGTTTTCCCGGTAATCCGTATTTGAT (site ATAAGGCCTTT)", "recombinant UMI read abundance (log10)": 0.0201},
      {"sequence": "ATAATGCCATGGACCGGTTTTCCCGGTAATCCGTATTTGAC (site ATAAAGCCTGT)", "recombinant UMI read abundance (log10)": 0.589},
      {"sequence": "ATAATGCCATGGACCGGTTTTCCCGGTAATCCGTATTTGAC (site ATAACGCCTGT)", "recombinant UMI read abundance (log10)": 0.155},
      {"sequence": "ATAATGCCATGGACCGGTTTTCCCGGTAATCCGTATTTGAC (site ATAAGGCCTGT)", "recombinant UMI read abundance (log10)": 0},
      {"sequence": "ATAATGCCATGGACCGGTTTTCCCGGTAATCCGTATTTGAC (site ATAATGCCTGT)", "recombinant UMI read abundance (log10)": 2.03},
      {"sequence": "ATACCCACATGGACCGGTTTTCCCGGTAATCCGTATTTGAC (site ATACCCACTGT)", "recombinant UMI read abundance (log10)": 2.65},
      {"sequence": "ATACGCACATGGACCGGTTTTCCCGGTAATCCGTATTTGAA (site ATACGCACTTT)", "recombinant UMI read abundance (log10)": 1.55},
      {"sequence": "ATACGCACATGGACCGGTTTTCCCGGTAATCCGTATTTGTT (site ATACGCACTAA)", "recombinant UMI read abundance (log10)": 1.29},
      {"sequence": "ATACTATCATGGACCGGTTTTCCCGGTAATCCGTATTTGAC (site ATACTATCTGT)", "recombinant UMI read abundance (log10)": 3.39},
      {"sequence": "ATACTATCATGGACCGGTTTTCCCGGTAATCCGTATTTGAC (site CTAGTATCTGT)", "recombinant UMI read abundance (log10)": 0},
      {"sequence": "ATAGGCCCATGGACCGGTTTTCCCGGTAATCCGTATTTGAA (site ATAGGCCCTTT)", "recombinant UMI read abundance (log10)": 0.215},
      {"sequence": "ATAGGGCCATGGACCGGTTTTCCCGGTAATCCGTATTTGAC (site ATAAGGCCTGT)", "recombinant UMI read abundance (log10)": 1.44},
      {"sequence": "ATAGGGCCATGGACCGGTTTTCCCGGTAATCCGTATTTGAC (site ATACGGCCTGT)", "recombinant UMI read abundance (log10)": 0},
      {"sequence": "ATAGGGCCATGGACCGGTTTTCCCGGTAATCCGTATTTGAC (site ATAGGGCCTGT)", "recombinant UMI read abundance (log10)": 0}
    ]}
  ]
}
